Source: BindingDB's records for doi:10.1016/j.bmcl.2012.03.099 (Rhône-Poulenc Rorer, 2012)

Target: Mitogen-activated protein kinase 14 (Homo sapiens) (UniProt Q16539)
Experiment: Inhibition of p38alpha

Sequence of Mitogen-activated protein kinase 14 (Homo sapiens) (Q16539 whole entry, looked up): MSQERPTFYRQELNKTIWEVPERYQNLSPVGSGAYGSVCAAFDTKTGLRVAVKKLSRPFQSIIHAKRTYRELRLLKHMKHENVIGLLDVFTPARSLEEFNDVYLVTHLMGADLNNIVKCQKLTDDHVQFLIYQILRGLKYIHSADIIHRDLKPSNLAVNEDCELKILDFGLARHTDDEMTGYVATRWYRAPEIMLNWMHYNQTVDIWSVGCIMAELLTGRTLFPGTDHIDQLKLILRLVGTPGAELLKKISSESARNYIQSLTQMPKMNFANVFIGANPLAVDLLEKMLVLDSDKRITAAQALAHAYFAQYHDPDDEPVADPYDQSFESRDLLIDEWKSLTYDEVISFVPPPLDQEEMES

SMILES	IC50 [nM]
Cc1c(F)cc(C(=O)NC2CC2)cc1-c1ccn2c(C3CC3)nnc2c1	6.7
Cc1c(F)cc(C(=O)NC2CC2)cc1-c1ccn2c(C(F)(F)F)nnc2c1	85
Cc1c(F)cc(C(=O)NC2CC2)cc1-c1ccn2c(C(C)C)nnc2c1	3
Cc1c(F)cc(C(=O)NC2CC2)cc1-c1ccn2c(C3CCOCC3)nnc2c1	30
Cc1ccc(C(=O)NC2CC2)cc1-c1ccn2c(C3CCOCC3)nnc2c1	56
CC(=O)NC(C)(C)c1nnc2cc(-c3cc(C(=O)NC4CC4)cc(F)c3C)ccn12	253
Cc1c(F)cc(C(=O)NC2CC2)cc1-c1c(F)cn2c(C(C)C)nnc2c1F	6.7
Cc1ccc(C(=O)NC2CC2)cc1-c1c(F)cn2c(C(C)(C)C)nnc2c1F	49
Cc1ccc(C(=O)NC2CC2)cc1-c1ccc2c(N3CCCCC3)noc2c1	14
Cc1c(F)cc(C(=O)NC2CC2)cc1-c1c(F)cn2c(C(C)(C)N(C)C)nnc2c1F	15
COC(C)c1nnc2cc(-c3cc(C(=O)NC4CC4)cc(F)c3C)ccn12 (stereo not given)	18
Cc1c(F)cc(C(=O)NC2CC2)cc1-c1ccn2c(C(C)(C)N(C)C)nnc2c1	1.7
Cc1c(F)cc(C(=O)NC2CC2)cc1-c1ccn2c(C(C)(C)C)nnc2c1	2
Cc1ccc(C(=O)NC2CC2)cc1-c1ccn2c(-c3ccncc3Cl)nnc2c1	38
Cc1ccc(C(=O)NC2CC2)cc1-c1ccn2c(-c3ccccc3Cl)nnc2c1	6.3
Cc1c(F)cc(C(=O)NC2CC2)cc1-c1c(F)cn2c(-c3ccncc3Cl)nnc2c1F	23
Cc1ccc(C(=O)NC2CC2)cc1-c1ccn2c(C(C)(C)C)nnc2c1	16
Cc1ccc(C(=O)NC2CC2)cc1-c1ccn2c(C(F)(F)F)nnc2c1	853
Cc1c(F)cc(C(=O)NC2CC2)cc1-c1ccn2c(C3(C)CC3)nnc2c1	0.64
Cc1c(F)cc(C(=O)NC2CC2)cc1-c1ccn2c(C3CCC3)nnc2c1	1.9
Cc1c(F)cc(C(=O)NC2CC2)cc1-c1ccn2c(-c3ccccc3Cl)nnc2c1	1.6
Cc1c(F)cc(C(=O)NC2CC2)cc1-c1c(F)cn2c(C(C)(C)N)nnc2c1F	12

The remaining compounds from weak to strong by IC50, led by results:

IC50 [nM]	SMILES
102	Cc1c(F)cc(C(=O)NC2CC2)cc1-c1ccn2c(C(N)=O)nnc2c1
62	CC(C)(C)c1nnc2ccc(Sc3ccc(F)cc3F)cn12
43	COC(C)c1nnc2cc(-c3cc(C(=O)NC4CC4)ccc3C)ccn12 (stereo not given)
27	Cc1ccc(C(=O)NC2CC2)cc1-c1ccn2c(C(C)C)nnc2c1
20	Cc1ccc(C(=O)NC2CC2)cc1-c1ccn2c(C3CCC3)nnc2c1
17	Cc1c(F)cc(C(=O)NC2CC2)cc1-c1ccn2c(C(C)(C)NS(C)(=O)=O)nnc2c1
15.4	Cc1c(F)cc(C(=O)NC2CC2)cc1-c1ccn2c(C(C)(C)N)nnc2c1
12	Cc1ccc(C(=O)NC2CC2)cc1-c1ccn2c(C3(C)CC3)nnc2c1
10	Cc1c(F)cc(C(=O)NC2CC2)cc1-c1c(F)cn2c(C3CC3)nnc2c1F
9.4	COC(C)(C)c1nnc2cc(-c3cc(C(=O)NC4CC4)cc(F)c3C)ccn12
6.2	Cc1c(F)cc(C(=O)NC2CC2)cc1-c1c(F)cn2c(C(C)(C)C)nnc2c1F
3.1	Cc1c(F)cc(C(=O)NC2CC2)cc1-c1ccn2c(C(C)(C)O)nnc2c1
0.83	Cc1c(F)cc(C(=O)NC2CC2)cc1-c1ccn2c(-c3ccncc3Cl)nnc2c1
